# Experimental data from the supplement of paper PMC10307832.
# Compound: c1ccc2c(CCNc3ccc(Nc4ccncc4)cc3)c[nH]c2c1 [Serdemetan] + CS(=O)(=O)CCNCc1ccc(-c2ccc3ncnc(Nc4ccc(OCc5cccc(F)c5)c(Cl)c4)c3c2)o1 [Lapatinib] (partner 2 µM)
# Test: relative viability (nuclei count vs DMSO), 5 days (fraction); higher = more cells survive
# Details: first compound 0.04 µM
# Procedure, shortened: (§1)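 One day after seeding in 1536-well plates, lung cancer cell lines were dosed by pin tool. Dosing was either single-drug or a fixed anchor-drug dose plus five library-drug doses (not always all listed) in √10 steps. After 5 days, nuclei were stained in one fix-and-stain step and counted on 4× images, and relative viability is the nuclei count of treated wells over that of vehicle wells, given as the median of duplicate plates.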
row,Cell Line,relative viability
1,NCI-H727,0.768
2,NCI-H1650,0.718
3,EBC-1,0.23
4,NCI-H1703,1.38
5,NCI-H1993,0.873
6,SW 1573,1.09
7,NCI-H838,0.9
8,NCI-H520,0.791
9,NCI-H2126,0.736
10,EMC-BAC-2,0.909

# Same assay, conditions: first compound 0.1265 µM
row,Cell Line,relative viability
1,NCI-H727,0.919
2,NCI-H1650,0.768
3,EBC-1,0.238
4,NCI-H1703,1.05
5,NCI-H1993,0.861
6,SW 1573,1.11
7,NCI-H838,0.986
8,NCI-H520,0.91
9,NCI-H2126,0.724
10,EMC-BAC-2,0.899

# Same assay, conditions: first compound 0.4 µM
row,Cell Line,relative viability
1,NCI-H727,0.758
2,NCI-H1650,0.599
3,EBC-1,0.218
4,NCI-H1703,1.07
5,NCI-H1993,0.75
6,SW 1573,1.05
7,NCI-H838,0.9
8,NCI-H520,0.813
9,NCI-H2126,0.78
10,EMC-BAC-2,0.92

# Same assay, conditions: first compound 1.265 µM
row,Cell Line,relative viability
1,NCI-H727,0.797
2,NCI-H1650,0.846
3,EBC-1,0.21
4,NCI-H1703,1.09
5,SW 1573,0.93
6,NCI-H838,0.86
7,NCI-H520,0.813
8,NCI-H2126,0.645
9,EMC-BAC-2,0.732

# Same assay, conditions: first compound 4 µM
row,Cell Line,relative viability
1,NCI-H727,0.416
2,NCI-H1650,0.558
3,EBC-1,0.203
4,NCI-H1703,0.885
5,NCI-H1993,0.768
6,SW 1573,0.596
7,NCI-H838,1.01
8,NCI-H520,0.614
9,NCI-H2126,0.844
10,EMC-BAC-2,0.841

# Compound: C1CC(C2=C(C1)C3=C(N2)C=CC(=C3)Cl)C(=O)N [Selisistat] + CS(=O)(=O)N1CCN(Cc2cc3nc(-c4cccc5[nH]ncc45)nc(N4CCOCC4)c3s2)CC1 [Pictilisib] (partner 1 µM)
# Test: as above
# Details: first compound 0.4 µM
# Procedure, shortened: as §1
row,Cell Line,relative viability
1,NCI-H727,0.354
2,NCI-H1650,0.692
3,EBC-1,0.373
4,NCI-H1703,0.232
5,NCI-H1993,0.702
6,SW 1573,0.557
7,NCI-H838,0.48
8,LCLC-103H,0.662
9,NCI-H520,0.262
10,NCI-H2126,0.525
11,EMC-BAC-2,0.551
12,ChaGo-K-1,0.804
13,NCI-H441,0.511

# Same assay, conditions: first compound 1.265 µM
row,Cell Line,relative viability
1,NCI-H727,0.435
2,NCI-H1650,0.59
3,EBC-1,0.286
4,NCI-H1703,0.217
5,NCI-H1993,0.81
6,SW 1573,0.594
7,NCI-H838,0.514
8,LCLC-103H,0.629
9,NCI-H520,0.304
10,NCI-H2126,0.496
11,EMC-BAC-2,0.53
12,ChaGo-K-1,0.844
13,NCI-H441,0.44

# Same assay, conditions: first compound 4 µM
row,Cell Line,relative viability
1,NCI-H1650,0.516
2,EBC-1,0.46
3,NCI-H1703,0.242
4,SW 1573,0.426
5,NCI-H838,0.39
6,LCLC-103H,0.464
7,NCI-H520,0.15
8,NCI-H2126,0.398
9,EMC-BAC-2,0.477
10,NCI-H441,0.405

# Same assay, conditions: first compound 12.65 µM
row,Cell Line,relative viability
1,NCI-H1650,0.589
2,EBC-1,0.454
3,NCI-H1703,0.267
4,NCI-H1993,0.828
5,SW 1573,0.419
6,NCI-H838,0.489
7,LCLC-103H,0.508
8,NCI-H520,0.294
9,NCI-H2126,0.526
10,EMC-BAC-2,0.577
11,ChaGo-K-1,0.675
12,NCI-H441,0.547

# Same assay, conditions: first compound 40 µM
row,Cell Line,relative viability
1,NCI-H727,0.423
2,NCI-H1650,0.548
3,EBC-1,0.389
4,NCI-H1703,0.233
5,NCI-H1993,0.854
6,SW 1573,0.513
7,NCI-H838,0.446
8,LCLC-103H,0.666
9,NCI-H520,0.354
10,NCI-H2126,0.584
11,EMC-BAC-2,0.524
12,ChaGo-K-1,0.646
13,NCI-H441,0.48

# Compound: C1CC(C2=C(C1)C3=C(N2)C=CC(=C3)Cl)C(=O)N [Selisistat]
# Test: relative viability (nuclei count vs DMSO), 5 days (fraction); higher = more cells survive
# Details: 0.4 µM
# Procedure, shortened: (§2)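 Acceptance criteria were a control CV below 25% and at least one doubling per plate. Lung cancer cell lines in 1536-well plates got five library-drug doses (not always all listed) √10 apart by pinning and were left 5 days with no medium change. Viability divides treated-well nuclei by vehicle-well nuclei and is the median across plates. Nuclei were counted by MetaXpress from 4× Hoechst images.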
row,Cell Line,relative viability
1,NCI-H522,0.899
2,NCI-H1623,1.08
3,NCI-H727,0.95
4,NCI-H1650,0.823
5,EBC-1,0.994
6,NCI-H1703,0.894
7,NCI-H1993,0.911
8,SW 1573,1.12
9,NCI-H838,1.03
10,LCLC-103H,1.06
11,NCI-H520,0.978
12,NCI-H2126,1.08
13,EMC-BAC-2,0.978
14,NCI-H2342,1.06
15,ChaGo-K-1,1.02
16,SW 900,1
17,NCI-H1648,0.769
18,NCI-H441,1.22

# Same assay, conditions: 1.265 µM
row,Cell Line,relative viability
1,NCI-H522,0.964
2,NCI-H1623,1.08
3,NCI-H727,1
4,NCI-H1650,0.844
5,EBC-1,0.963
6,NCI-H1703,0.834
7,NCI-H1993,0.898
8,SW 1573,0.89
9,NCI-H838,0.958
10,LCLC-103H,1.05
11,NCI-H520,0.939
12,NCI-H2126,1.05
13,EMC-BAC-2,0.996
14,NCI-H2342,0.881
15,ChaGo-K-1,0.942
16,SW 900,0.801
17,NCI-H1648,0.787
18,NCI-H441,1.11

# Same assay, conditions: 4 µM
row,Cell Line,relative viability
1,NCI-H522,0.763
2,NCI-H1623,0.843
3,NCI-H1650,0.829
4,EBC-1,1.01
5,NCI-H1703,0.9
6,SW 1573,0.896
7,NCI-H838,0.863
8,LCLC-103H,0.819
9,NCI-H520,0.995
10,NCI-H2126,0.833
11,EMC-BAC-2,0.595
12,NCI-H2342,0.908
13,ChaGo-K-1,0.8
14,SW 900,0.656
15,NCI-H1648,1.04
16,NCI-H441,0.774

# Same assay, conditions: 12.65 µM
row,Cell Line,relative viability
1,NCI-H522,0.806
2,NCI-H1623,1.09
3,NCI-H727,0.863
4,NCI-H1650,0.905
5,EBC-1,0.956
6,NCI-H1703,0.853
7,NCI-H1993,1.01
8,SW 1573,1.03
9,NCI-H838,0.96
10,LCLC-103H,0.947
11,NCI-H520,0.937
12,NCI-H2126,0.999
13,EMC-BAC-2,0.688
14,NCI-H2342,0.94
15,ChaGo-K-1,0.866
16,SW 900,0.846
17,NCI-H1648,1.19
18,NCI-H441,0.955

# Same assay, conditions: 40 µM
row,Cell Line,relative viability
1,NCI-H522,0.885
2,NCI-H1623,1.18
3,NCI-H727,0.895
4,NCI-H1650,0.911
5,EBC-1,0.954
6,NCI-H1703,0.848
7,NCI-H1993,1.04
8,SW 1573,1.05
9,NCI-H838,0.985
10,LCLC-103H,0.988
11,NCI-H520,0.877
12,NCI-H2126,1.02
13,EMC-BAC-2,0.561
14,NCI-H2342,0.928
15,ChaGo-K-1,0.97
16,SW 900,0.858
17,NCI-H1648,1.19
18,NCI-H441,1.01

# Compound: c1ccc2c(CCNc3ccc(Nc4ccncc4)cc3)c[nH]c2c1 [Serdemetan]
# Test: as above
# Details: 0.04 µM
# Procedure, shortened: as §2
row,Cell Line,relative viability
1,NCI-H522,1.03
2,NCI-H1623,0.969
3,NCI-H727,0.936
4,NCI-H1650,0.916
5,EBC-1,0.903
6,NCI-H1703,1.08
7,NCI-H1993,0.977
8,SW 1573,0.904
9,NCI-H838,0.959
10,LCLC-103H,0.993
11,NCI-H520,0.929
12,NCI-H2126,1.02
13,EMC-BAC-2,0.962
14,NCI-H2342,1.17
15,ChaGo-K-1,0.964
16,SW 900,0.876
17,NCI-H441,0.981

# Same assay, conditions: 0.1265 µM
row,Cell Line,relative viability
1,NCI-H522,0.938
2,NCI-H1623,1.02
3,NCI-H727,0.808
4,NCI-H1650,0.892
5,EBC-1,0.931
6,NCI-H1703,0.84
7,NCI-H1993,0.995
8,SW 1573,1.11
9,NCI-H838,0.976
10,LCLC-103H,1.01
11,NCI-H520,0.977
12,NCI-H2126,1.05
13,EMC-BAC-2,1.02
14,NCI-H2342,1.13
15,ChaGo-K-1,0.95
16,SW 900,0.941
17,NCI-H1648,1.07
18,NCI-H441,1.06

# Same assay, conditions: 0.4 µM
row,Cell Line,relative viability
1,NCI-H522,0.943
2,NCI-H1623,0.961
3,NCI-H727,1.07
4,NCI-H1650,0.788
5,EBC-1,0.943
6,NCI-H1703,0.882
7,NCI-H1993,0.699
8,SW 1573,0.966
9,NCI-H838,0.98
10,LCLC-103H,0.995
11,NCI-H520,0.951
12,NCI-H2126,0.96
13,EMC-BAC-2,0.971
14,NCI-H2342,1.08
15,ChaGo-K-1,0.873
16,SW 900,0.926
17,NCI-H1648,0.924
18,NCI-H441,1.06

# Same assay, conditions: 1.265 µM
row,Cell Line,relative viability
1,NCI-H522,0.605
2,NCI-H1623,0.815
3,NCI-H727,0.669
4,NCI-H1650,0.759
5,EBC-1,0.857
6,NCI-H1703,0.764
7,NCI-H1993,0.831
8,SW 1573,0.48
9,NCI-H838,0.92
10,LCLC-103H,0.877
11,NCI-H520,0.633
12,NCI-H2126,0.948
13,EMC-BAC-2,0.849
14,NCI-H2342,0.84
15,ChaGo-K-1,0.624
16,SW 900,0.547
17,NCI-H1648,0.472
18,NCI-H441,0.815

# Same assay, conditions: 4 µM
row,Cell Line,relative viability
1,NCI-H522,1.09
2,NCI-H1623,0.713
3,NCI-H727,0.555
4,NCI-H1650,0.688
5,EBC-1,0.722
6,NCI-H1703,0.71
7,NCI-H1993,0.89
8,SW 1573,0.343
9,NCI-H838,1.14
10,LCLC-103H,1.04
11,NCI-H520,0.856
12,NCI-H2126,1.02
13,EMC-BAC-2,0.967
14,NCI-H2342,0.69
15,ChaGo-K-1,0.529
16,SW 900,0.666
17,NCI-H1648,0.358
18,NCI-H441,0.78
